Test results from US5212201A, “Xanthine oxidase inhibitor” (priority 1989, dated 1993).
Where two headings read alike, the source gives them in different places.

Legend:
[1] = target: xanthine oxidase (Bos taurus, UniProt P80457); experiment: xanthine oxidase inhibitory activity (absorbance at 290 nm, xanthine substrate); type: biochemical; details: for Relative intensity: relative to 1.00 (XOI-A and allopurinol), from concentration for 50% inhibitory rate; for activity compared with known xanthine oxidase inhibitors allopurinol, luteolin / activity compared with quercetin: as seen from Table 1; for Total activity: purification from Perilla frutescens (3.73 kg fresh weight); for Total activity / Specific activity: 1 U = activity required for inhibiting 50% of xanthine oxidase; for Specific activity: purification from Perilla frutescens
Chain of xanthine oxidase (P80457 whole entry): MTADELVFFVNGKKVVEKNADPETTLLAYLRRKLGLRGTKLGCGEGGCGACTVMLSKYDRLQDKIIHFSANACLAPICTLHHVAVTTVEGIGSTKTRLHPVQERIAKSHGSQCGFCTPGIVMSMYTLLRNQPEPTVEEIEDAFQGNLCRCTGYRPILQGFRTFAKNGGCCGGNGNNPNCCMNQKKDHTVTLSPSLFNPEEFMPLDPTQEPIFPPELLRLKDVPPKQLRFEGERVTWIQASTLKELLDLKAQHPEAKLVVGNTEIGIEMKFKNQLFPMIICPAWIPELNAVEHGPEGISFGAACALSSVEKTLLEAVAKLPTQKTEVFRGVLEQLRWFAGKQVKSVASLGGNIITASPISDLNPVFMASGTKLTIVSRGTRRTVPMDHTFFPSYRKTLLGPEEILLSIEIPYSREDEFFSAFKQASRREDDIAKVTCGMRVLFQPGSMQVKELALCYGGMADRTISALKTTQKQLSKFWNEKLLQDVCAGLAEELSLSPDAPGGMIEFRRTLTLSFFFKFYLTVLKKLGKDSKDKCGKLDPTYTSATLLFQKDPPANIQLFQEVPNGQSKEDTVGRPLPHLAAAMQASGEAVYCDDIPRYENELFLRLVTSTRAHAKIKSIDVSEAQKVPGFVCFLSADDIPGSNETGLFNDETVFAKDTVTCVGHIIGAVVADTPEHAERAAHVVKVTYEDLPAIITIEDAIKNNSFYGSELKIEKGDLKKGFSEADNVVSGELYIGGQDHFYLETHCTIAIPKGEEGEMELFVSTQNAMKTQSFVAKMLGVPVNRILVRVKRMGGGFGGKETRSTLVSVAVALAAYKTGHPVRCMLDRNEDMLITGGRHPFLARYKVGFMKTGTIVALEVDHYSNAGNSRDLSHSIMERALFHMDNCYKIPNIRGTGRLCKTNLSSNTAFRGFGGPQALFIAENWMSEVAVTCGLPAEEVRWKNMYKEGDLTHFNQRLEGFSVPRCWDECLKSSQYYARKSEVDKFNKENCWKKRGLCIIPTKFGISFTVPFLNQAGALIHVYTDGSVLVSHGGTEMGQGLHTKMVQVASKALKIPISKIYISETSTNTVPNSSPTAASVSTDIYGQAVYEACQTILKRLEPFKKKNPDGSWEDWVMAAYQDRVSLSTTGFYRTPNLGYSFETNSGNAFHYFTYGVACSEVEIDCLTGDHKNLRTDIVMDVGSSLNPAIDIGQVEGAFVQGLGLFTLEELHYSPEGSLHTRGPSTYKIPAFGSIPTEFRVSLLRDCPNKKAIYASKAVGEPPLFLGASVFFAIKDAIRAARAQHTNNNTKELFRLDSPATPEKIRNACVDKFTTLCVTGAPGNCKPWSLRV
Method: This xanthine oxidase inhibitory activity can be determined, for example, as follows:
Enzyme solution: An enzyme solution is prepared by dissolving 150 μl of xanthine oxidase (15.2 units/ml) in 10 ml of 1/15 M phosphate buffer (pH 7.5).
Substrate solution: A substrate solution is prepared by heating 22.8 mg of xanthine in 1 liter of water to dissolve it.
Determination: 0.1 ml of the enzyme solution and 2.9 ml of phosphate buffer (the same as that described above) are admixed with 1.0 ml of the sample solution and the mixture is incubated at 37° C. for 10 minutes.
Then, 1 ml of the substrate solution preincubated at 37° C. is added to this reaction mixture and, after reaction for 30 minutes, an absorbance at 290 nm (D1) is measured.
Separately, an absorbance at 290 nm (D2) of a reaction mixture obtained by the similar reaction procedure using a heat inactivated enzyme, an absorbance (D3) without addition of the sample solution, and absorbance (D4) of a reaction mixture obtained by using a heat-inactivated enzyme without addition of the sample solution are measured. By using the values obtained by these measurements, the inhibitory rate of xanthine oxidase is calculated by using the following equation:
Inhibitory Rate (%)={1-(D1 -D2)/(D3 -D4 }×100
In Table 2, 1 U represents the activity required for inhibiting 50% of xanthine oxidase.

[2] = solubility in solvents; type: physicochemical
[3] = xanthine oxidase, pH 7.5, 37° C., reaction for 30 minutes, read-out: Concentration for 50% inhibitory rate (converted)

SMILES	IC50 [1] [nM]	Relative intensity [1]	solubility in methanol, propanol, acetone, ethyl acetate or acetonitrile [2]	solubility in water, chloroform or hexane [2]	activity compared with known xanthine oxidase inhibitors allopurinol, luteolin [1]	activity compared with quercetin [1]	Total activity [1]	Specific activity [1] [μ/mg]	Specific activity, figure in parentheses (relative to ethanol extract = 1) ([1]; purification step)	Total activity, figure in parentheses (relative to ethanol extract = 100) ([1]; purification step, ethanol extract = 100)	IC50 [1, 3] [nM]
O=c1cc(-c2ccc(O)c(O)c2)oc2cc(O)cc(O)c12 [Luteolin, luteolin, reference compound]	384	0.19	–	–	–	–	–	–	–	–	–
O=C(/C=C/c1ccc(O)c(O)c1)O/C=C\c1ccc(O)c(O)c1 [XOI-A, (Z,E)-2-(3,4-dihydroxyphenyl)ethenylester of 3-(3,4-dihydroxyphenyl)-2-propenoic acid]	–	–	readily soluble	slightly soluble	comparable to that of allopurinol	superior to that of quercetin	1.96 × 10^6 (U)	46600	222	6	66.8
O=C(/C=C/c1ccc(O)c(O)c1)O/C=C\c1cc(O)cc(O)c1 [XOI-B, (Z,E)-2-(3,5-dihydroxyphenyl)ethenylester of 3-(3,4-dihydroxyphenyl)-2-propenoic acid]	–	0.17	readily soluble	slightly soluble	almost the same as that of luteolin	superior to that of quercetin	0.09 × 10^6 (U)	8040	38	–	395
